pKi: −log10 of the molar value. Numbered stars: 1 amine (or outer) side, 2 acyl side, 3 side chain; on linkers, the order of the positions; unused ones are H or OH. Bridge positions count the residues as written; N and C are the ends. Square brackets hold non-standard residues; d marks the D form. Peptide text beside a SMILES is read from it. Suc = O=C(CCC(=O)[*:2])[*:1]; Nle = CCCC[C@H](N)C(=O)O; Dab = NCC[C@H](N)C(=O)O

24 molecules from patent publication US9447148B2, “Melanocortin-1 receptor-specific cyclic peptides” (Palatin Technologies, Inc., priority 2009, dated 2016) can be followed below.

Sequence of hMCR-1 (Q01726 whole entry): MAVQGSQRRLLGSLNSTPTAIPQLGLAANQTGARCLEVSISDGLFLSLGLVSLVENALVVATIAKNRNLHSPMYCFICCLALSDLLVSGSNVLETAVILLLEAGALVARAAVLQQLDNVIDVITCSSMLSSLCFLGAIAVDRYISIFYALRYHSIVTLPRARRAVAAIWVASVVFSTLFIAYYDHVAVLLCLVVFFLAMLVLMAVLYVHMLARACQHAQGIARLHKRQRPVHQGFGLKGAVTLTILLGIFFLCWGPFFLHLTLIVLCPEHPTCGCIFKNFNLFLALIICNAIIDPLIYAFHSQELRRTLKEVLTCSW

The target in one test is hMCR-4 (Homo sapiens (Human), UniProt P32245). Nature of the test: Competitive inhibition binding assay using [I125]-NDP-α-MSH, hMCR-4. The following applies: membrane homogenates of HEK-293 cells, human recombinant receptor, averaged, read-out: MC-4 Ki (average). The procedure: A competitive inhibition binding assay was performed using membrane homogenates prepared from HEK-293 cells that express recombinant hMCR-1a or hMCR-4 (in each instance where the h prefix refers to human), or alternatively membrane homogenates from B16-F10 mouse melanoma cells containing endogenous murine MCR-1. In the examples that follow, all MCR-1 and MCR-4 values are for human recombinant receptors, unless otherwise noted. Assays were performed in 96 well polypropylene round-bottom plates (VWR catalog number 12777-030). […] After incubation for 90 minutes at 37° C., the assay mixture was filtered onto GF/B Unifilter plates (Perkin-Elmer catalog number 6005177) and washed with 3 mL of ice-cold buffer per well. Filters were air dried and 35 μL of scintillation cocktail added to each well. Plates were counted in a Microbeta counter for bound radioactivity. […] Each assay was conducted in duplicate and the actual mean values are described, with results less than 0% reported as 0%. Ki values for peptides of the present invention were determined using Graph-Pad Prism® curve-fitting software.
Sequence of hMCR-4 (P32245 whole entry): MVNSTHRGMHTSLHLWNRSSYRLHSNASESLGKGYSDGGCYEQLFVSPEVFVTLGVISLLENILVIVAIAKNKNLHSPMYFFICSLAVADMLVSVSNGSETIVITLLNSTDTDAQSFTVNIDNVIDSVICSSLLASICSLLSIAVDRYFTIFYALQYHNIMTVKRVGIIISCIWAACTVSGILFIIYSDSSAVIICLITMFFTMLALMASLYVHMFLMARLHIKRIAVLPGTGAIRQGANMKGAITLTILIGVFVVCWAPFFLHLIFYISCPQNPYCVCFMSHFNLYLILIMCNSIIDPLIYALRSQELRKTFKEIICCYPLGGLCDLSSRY
(§1) Peptides of the following structures were synthesized and averaged MCR-1 and MCR-4 Ki values were determined as indicated. […] All results are expressed in nM except for Emax values, which are percentage values. Peptides with the captioned primary sequence were synthesized and purified as described in Section 5 above, with the resulting peptide having the structure depicted.
Consider `CCCC[C@H](NC(C)=O)C(=O)N[C@H]1CCC(=O)NCC[C@@H](C(=O)N[C@H](Cc2ccc3ccccc3c2)C(N)=O)NC(=O)[C@H](CCCNC(=N)N)NC(=O)[C@@H](Cc2ccccc2)NC(=O)[C@H](Cc2c[nH]cn2)NC1=O` [Example 9.11, Ac-Nle-cyclo(Glu-His-D-Phe-Arg-Dab)-D-Nal 2-NH2], for which the negative logarithm of the Ki (pKi) – broadly, the negative decadic logarithm of the Ki, by convention in mol/L – is 10.02.

On to `CCCC[C@H](NC(C)=O)C(=O)N[C@H]1CCC(=O)NCC[C@@H](C(=O)N[C@H](Cc2c[nH]c3ccccc23)C(N)=O)NC(=O)[C@H](CCCNC(=N)N)NC(=O)[C@@H](Cc2ccccc2)NC(=O)[C@H](Cc2c[nH]cn2)NC1=O` [Example 9.7, Ac-Nle-cyclo(Glu-His-D-Phe-Arg-Dab)-D-Trp-NH2], for which the pKi is 7.48. For `CC(=O)N[C@H](Cc1ccccc1)C(=O)N[C@H]1CCC(=O)NCC[C@@H](C(=O)N[C@@H](Cc2c[nH]c3ccccc23)C(N)=O)NC(=O)[C@H](CCCNC(=N)N)NC(=O)[C@@H](Cc2ccccc2)NC(=O)[C@H](Cc2c[nH]cn2)NC1=O` [Example 9.12, Ac-D-Phe-cyclo(Glu-His-D-Phe-Arg-Dab)-Trp-NH2], the pKi was 6.27. On to `CCCC[C@H](NC(C)=O)C(=O)N[C@H]1CCC(=O)NCCC[C@@H](C(=O)N[C@@H](Cc2c[nH]c3ccccc23)C(N)=O)NC(=O)[C@H](CCCNC(=N)N)NC(=O)[C@@H](Cc2ccccc2)NC(=O)[C@H](Cc2c[nH]cn2)NC1=O` [Example 9.6, Ac-Nle-cyclo(Glu-His-D-Phe-Arg-Orn)-Trp-NH2], for which the pKi is 6.53. On to `N=C(N)NCCC[C@@H]1NC(=O)[C@@H](Cc2ccccc2)NC(=O)[C@H](Cc2c[nH]cn2)NC(=O)CCC(=O)NCC[C@@H](C(=O)N[C@@H](Cc2c[nH]c3ccccc23)C(N)=O)NC1=O` [Example 9.14, cyclo(Suc-His-Phe-Arg-Dab)-Trp-NH2] (H[dF]R[Dab]W-NH2; linker N-4 via Suc), for which the negative-log Ki (pKi) was 5.00. For `CCCCCC(=O)N[C@H]1CCC(=O)NCC[C@@H](C(=O)N[C@@H](Cc2c[nH]c3ccccc23)C(N)=O)NC(=O)[C@H](CCCNC(=N)N)NC(=O)[C@@H](Cc2ccccc2)NC(=O)[C@H](Cc2c[nH]cn2)NC1=O` [Example 9.17, CH3—(CH2)4—C(═O)-cyclo(Glu-His-D-Phe-Arg-Dab)-Trp-NH2], the pKi was 6.96. The same measure, in the same setting: then `CCCC[C@H](NC(C)=O)C(=O)N[C@H]1CCC(=O)NCC[C@@H](C(=O)N[C@@H](Cc2c[nH]c3ccccc23)C(N)=O)NC(=O)[C@H](CCCNC(=N)N)NC(=O)[C@@H](Cc2ccccc2)NC(=O)[C@H](C)NC1=O` [Example 9.36, Ac-Nle-cyclo(Glu-Ala-D-Phe-Arg-Dab)-Trp-NH2], with 6.34; and `CCCC[C@H](NC(C)=O)C(=O)N[C@H]1CCC(=O)NCC[C@@H](C(N)=O)NC(=O)[C@H](CCCNC(=N)N)NC(=O)[C@@H](Cc2ccccc2)NC(=O)[C@@H]2CCCN2C1=O` [Example 9.65, Ac-Nle-cyclo(Glu-Pro-D-Phe-Arg-Dab)-NH2], with 5.00; and `CCCC[C@H](NC(C)=O)C(=O)N[C@H]1CCC(=O)NCC[C@@H](C(=O)N[C@@H](Cc2c[nH]c3ccccc23)C(N)=O)NC(=O)[C@H](CCCNC(=N)N)NC(=O)[C@@H](Cc2ccccc2)NC(=O)[C@H](CCCNC(N)=O)NC1=O` [Example 9.38, Ac-Nle-cyclo(Glu-Cit-D-Phe-Arg-Dab)-Trp-NH2], with 7.01. As for `CCCC[C@H](NC(C)=O)C(=O)N[C@H]1CCC(=O)NCC[C@@H](C(=O)N[C@H](Cc2cccc3ccccc23)C(N)=O)NC(=O)[C@H](CCCNC(=N)N)NC(=O)[C@@H](Cc2ccccc2)NC(=O)[C@H](Cc2c[nH]cn2)NC1=O` [Example 9.9, Ac-Nle-cyclo(Glu-His-D-Phe-Arg-Dab)-D-Nal 1-NH2], the pKi is 8.70. For `CCCC[C@H](NC(C)=O)C(=O)N[C@H]1CCC(=O)NCCCC[C@@H](C(=O)N[C@@H](Cc2c[nH]c3ccccc23)C(N)=O)NC(=O)[C@H](CCCNC(=N)N)NC(=O)[C@@H](Cc2ccccc2)NC(=O)[C@H](Cc2c[nH]cn2)NC1=O` [Example 9.1, Ac-Nle-cyclo(Glu-His-D-Phe-Arg-Lys)-Trp-NH2], the pKi is 7.35.

As for `CCCC[C@H](NC(C)=O)C(=O)N[C@H]1CCC(=O)NC[C@@H](C(=O)N[C@@H](Cc2c[nH]c3ccccc23)C(N)=O)NC(=O)[C@H](CCCNC(=N)N)NC(=O)[C@@H](Cc2ccccc2)NC(=O)[C@H](Cc2c[nH]cn2)NC1=O` [Example 9.3, Ac-Nle-cyclo(Glu-His-D-Phe-Arg-Dap)-Trp-NH2], the pKi was 6.45. Take `CCCC[C@H](NC(C)=O)C(=O)N[C@H]1CCC(=O)NCC[C@@H](C(=O)N[C@@H](Cc2ccc3ccccc3c2)C(N)=O)NC(=O)[C@H](CCCNC(=N)N)NC(=O)[C@@H](Cc2ccccc2)NC(=O)[C@H](Cc2c[nH]cn2)NC1=O` [Example 9.10, Ac-Nle-cyclo(Glu-His-D-Phe-Arg-Dab)-Nal 2-NH2]: the negative logarithm of the Ki (pKi) was 8.52. For the molecule `CCCC[C@H](NC(C)=O)C(=O)N[C@H]1CCNC(=O)CCC(=O)NCC[C@@H](C(=O)N[C@@H](Cc2c[nH]c3ccccc23)C(N)=O)NC(=O)[C@H](CCCNC(=N)N)NC(=O)[C@@H](Cc2ccccc2)NC(=O)[C@H](Cc2c[nH]cn2)NC1=O` [Example 9.27], the pKi is 6.42. For the molecule `CCCC[C@H](NC(C)=O)C(=O)N[C@H]1CNC(=O)CCC(=O)NC[C@@H](C(=O)N[C@@H](Cc2c[nH]c3ccccc23)C(N)=O)NC(=O)[C@H](CCCNC(=N)N)NC(=O)[C@@H](Cc2ccccc2)NC(=O)[C@H](Cc2c[nH]cn2)NC1=O` [Example 9.28], the pKi is 6.17. On the same count and under the same terms, then `CCCC[C@H](NC(C)=O)C(=O)N[C@H]1CCC(=O)NCC[C@@H](C(=O)N[C@@H](Cc2c[nH]c3ccccc23)C(N)=O)NC(=O)[C@H](CCCNC(=N)N)NC(=O)[C@@H](Cc2ccccc2)NC(=O)[C@H](CCCN)NC1=O` [Example 9.42, Ac-Nle-cyclo(Glu-Orn-D-Phe-Arg-Dab)-Trp-NH2], with 7.35. Turning to `CCCC[C@H](NC(C)=O)C(=O)N[C@H]1CCNC(=O)CCC(=O)NC[C@@H](C(=O)N[C@@H](Cc2c[nH]c3ccccc23)C(N)=O)NC(=O)[C@H](CCCNC(=N)N)NC(=O)[C@@H](Cc2ccccc2)NC(=O)[C@H](Cc2c[nH]cn2)NC1=O` [Example 9.29], the pKi is 6.49.

As for `CCCC[C@H](NC(C)=O)C(=O)N[C@H]1CCC(=O)NCC[C@@H](C(=O)N[C@@H](Cc2c[nH]c3ccccc23)C(N)=O)NC(=O)[C@H](CCCNC(=N)N)NC(=O)[C@@H](Cc2ccccc2)NC(=O)[C@H](CCCCN)NC1=O` [Example 9.40, Ac-Nle-cyclo(Glu-Lys-D-Phe-Arg-Dab)-Trp-NH2], the pKi is 7.02. Still for that read-out and setting: with `CCCC[C@H](NC(C)=O)C(=O)N[C@H]1CCC(=O)NCC[C@@H](C(=O)N[C@@H](Cc2c[nH]c3ccccc23)C(N)=O)NC(=O)[C@H](CCCNC(=N)N)NC(=O)[C@@H](Cc2ccccc2)NC(=O)[C@H](CCN)NC1=O` [Example 9.41, Ac-Nle-cyclo(Glu-Dab-D-Phe-Arg-Dab)-Trp-NH2] the figure was 7.01; with `CCCC[C@H](NC(C)=O)C(=O)N[C@H]1CCC(=O)NCC[C@@H](C(=O)N[C@@H](Cc2c[nH]c3ccccc23)C(N)=O)NC(=O)[C@H](CCCNC(=N)N)NC(=O)[C@@H](Cc2ccccc2)NC(=O)[C@H](CCCNC(=N)N)NC1=O` [Example 9.37, Ac-Nle-cyclo(Glu-Arg-D-Phe-Arg-Dab)-Trp-NH2], 7.70. As for `CCCC[C@H](NC(C)=O)C(=O)N[C@H]1CCC(=O)NCC[C@@H](C(=O)N[C@@H](Cc2cccc3ccccc23)C(N)=O)NC(=O)[C@H](CCCNC(=N)N)NC(=O)[C@@H](Cc2ccccc2)NC(=O)[C@H](Cc2c[nH]cn2)NC1=O` [Example 9.30, Ac-Nle-cyclo(Glu-His-D-Phe-Arg-Dab)-Nal 1-NH2], the pKi was 9.12. For the molecule `CCCC[C@H](NC(C)=O)C(=O)N[C@H]1CCC(=O)NCC[C@@H](C(=O)N[C@@H](Cc2c[nH]c3ccccc23)C(N)=O)NC(=O)[C@H](CCCNC(=N)N)NC(=O)[C@H](Cc2ccccc2)NC(=O)[C@H](Cc2c[nH]cn2)NC1=O` [Example 9.8, Ac-Nle-cyclo(Glu-His-Phe-Arg-Dab)-Trp-NH2], the negative-log Ki (pKi) is 5.00.

Regarding `CCCC[C@H](NC(C)=O)C(=O)N[C@H]1CCC(=O)NCC[C@@H](C(=O)N[C@@H](Cc2c[nH]c3ccccc23)C(N)=O)NC(=O)[C@H](CCCNC(=N)N)NC(=O)[C@@H](Cc2ccccc2)NC(=O)[C@H](Cc2c[nH]cn2)NC1=O` [Example 9.2, Ac-Nle-cyclo(Glu-His-D-Phe-Arg-Dab)-Trp-NH2], the negative-log Ki (pKi) is 6.96.

A further test deals with hMCR-1 (Homo sapiens (Human), UniProt Q01726). The test can be described thus: Assay for agonist activity: intracellular cAMP accumulation in HBL human melanoma cells. It is filed as cell-based. The settings on record: HBL cells, maximum efficacy compared to reference agonist NDP-α-MSH. The procedure:
Confluent HBL cells that express hMCR-1 or HEK-293 cells that express recombinant hMCR-4 were detached from culture plates by incubation in enzyme-free cell dissociation buffer. Dispersed cells were suspended in Earle's Balanced Salt Solution containing 10 mM HEPES (pH 7.5), 1 mM MgCl2, 1 mM glutamine, 0.5% albumin and 0.3 mM 3-isobutyl-1-methyl-xanthine (IBMX), a phosphodiesterase inhibitor. The cells were plated in 96-well plates at a density of 0.4×10^5 cells per well for HBL cells and 0.5×10^5 cells per well for HEK-293 cells and pre-incubated for 10 minutes. Cells were exposed for 15 minutes at 37° C. to peptides of the present invention dissolved in DMSO (final DMSO concentration of 1%) at a concentration range of 0.05-5000 nM in a total assay volume of 200 μL. […] Data analysis was performed by nonlinear regression analysis with Graph-Pad Prism® software.
as §1
On to `CCCC[C@H](NC(C)=O)C(=O)N[C@H]1CCC(=O)NCC[C@@H](C(=O)N[C@@H](Cc2c[nH]c3ccccc23)C(N)=O)NC(=O)[C@H](C)NC(=O)[C@@H](Cc2ccccc2)NC(=O)[C@H](Cc2c[nH]cn2)NC1=O` [Example 9.48, Ac-Nle-cyclo(Glu-His-D-Phe-Ala-Dab)-Trp-NH2] (Ac-[Nle]EH[dF]A[Dab]W-NH2; lactam 2-6), for which the “MC-1 Emax (average; cAMP HBL)” value is on record as 72% ^.
